# Active and inactive are the calls of the source.
# Tests used:
# Kallikrein-7 = Kallikrein-7 (Homo sapiens, UniProt P49862); test: Fluorescence Intensity-based biochemical primary high throughput dose response assay to identify activators of kallikrein-7 (K7) zymogen.
# Phospholipase D1 = target: T1, Phospholipase D1 (Homo sapiens, UniProt Q13393); test: cellular phospholipase D1 inhibition IC50 – cell-based, dose response (AID 602151); format: functional;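 note: cellular PLD1 assay in Calu-1 cells stimulated with PMA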
# T1 sequence (Q13393 whole entry): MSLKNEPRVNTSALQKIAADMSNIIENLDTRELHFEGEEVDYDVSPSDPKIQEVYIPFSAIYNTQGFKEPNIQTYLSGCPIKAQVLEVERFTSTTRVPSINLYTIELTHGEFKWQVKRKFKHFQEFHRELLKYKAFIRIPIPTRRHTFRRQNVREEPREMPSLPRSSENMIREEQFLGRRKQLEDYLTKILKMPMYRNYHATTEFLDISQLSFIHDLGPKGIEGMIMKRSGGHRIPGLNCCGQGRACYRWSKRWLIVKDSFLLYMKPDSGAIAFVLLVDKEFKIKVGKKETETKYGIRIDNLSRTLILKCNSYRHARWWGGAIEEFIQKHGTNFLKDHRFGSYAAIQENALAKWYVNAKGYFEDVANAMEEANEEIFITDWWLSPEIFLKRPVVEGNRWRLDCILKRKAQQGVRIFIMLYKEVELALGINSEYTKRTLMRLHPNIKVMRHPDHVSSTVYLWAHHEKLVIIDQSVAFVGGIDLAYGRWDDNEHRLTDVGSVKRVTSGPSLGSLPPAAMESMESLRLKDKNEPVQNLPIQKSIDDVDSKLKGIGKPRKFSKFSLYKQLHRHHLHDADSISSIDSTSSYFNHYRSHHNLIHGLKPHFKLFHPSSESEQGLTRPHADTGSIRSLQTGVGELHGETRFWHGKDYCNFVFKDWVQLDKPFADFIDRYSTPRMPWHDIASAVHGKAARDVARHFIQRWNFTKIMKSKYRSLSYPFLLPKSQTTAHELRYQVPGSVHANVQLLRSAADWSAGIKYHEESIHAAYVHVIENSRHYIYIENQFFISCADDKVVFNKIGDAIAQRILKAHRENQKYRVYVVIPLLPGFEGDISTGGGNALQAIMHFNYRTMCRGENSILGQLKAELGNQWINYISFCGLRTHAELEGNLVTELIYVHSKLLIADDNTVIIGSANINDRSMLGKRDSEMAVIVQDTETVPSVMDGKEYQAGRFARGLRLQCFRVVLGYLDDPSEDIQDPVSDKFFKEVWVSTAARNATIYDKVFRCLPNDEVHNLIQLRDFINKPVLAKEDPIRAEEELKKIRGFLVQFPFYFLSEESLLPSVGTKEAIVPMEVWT
# Phospholipase D2 = Phospholipase D2 (Homo sapiens, UniProt O14939); test: cellular phospholipase D2 inhibition IC50 – cell-based, dose response (AID 602147); format: functional;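 note: cellular assay in HEK293 cells overexpressing GFP-tagged PLD2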
# [1] = blockers of HIV-1 envelope-mediated cell-cell fusion – cherry-pick, dose response (AID 652057); format: functional, cell-based
# [2] = off-target signal loss in HeLa-CEM21 co-culture – HeLa F-luc CTL cells, cherry-picked, counter-screen for HIV-1 Env fusion inhibitor project, dose response (AID 652040); format: functional, cell-based;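 note: potency for signal decrease marking cytotoxic or nonspecific inhibition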
# [3] = HIV-1 AD8 envelope cell-cell fusion blockers – cherry-pick, dose response (AID 652062); format: functional, cell-based;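 note: luciferase signal from cell-cell fusion driven by HIV-1 clade B AD8 Env; potency is for inhibitors of fusion seen as a drop in luminescence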
# [4] = T. cruzi growth inhibition in host cells, dose response, cell-based, plate reader, dry powder, set 2 (AID 652275); format: functional
# [5] = blockers of HIV-1 ZM109 envelope-driven cell-cell fusion – HeLa effector, CEM target cells, luciferase, cherry-pick, dose response (AID 652058); format: functional, cell-based;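 note: luciferase signal from HIV-1 Env mediated cell-cell fusion of effector and target cells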
# Paired box protein Pax-8 = Paired box protein Pax-8 (Homo sapiens, UniProt Q06710); test: PAX8 transcriptional activity inhibition in RMG-I – RMG-I cells, luciferase, cherry-pick, dose response (AID 687027); format: functional, cell-based;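 note: luciferase reporter driven by Pax8 target thyroperoxidase promoter measured by SteadyGlo luminescence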
# [6] = OVCAR-3 cell viability loss – plate reader, dry powder samples, PAX8 inhibitor project, dose response (AID 743044); format: functional, cell-based
# [7] = general cell-killing toxicity readout – plate reader, dry powder samples, cytotoxicity control for PAX8 inhibitor project, dose response (AID 743021); format: functional, cell-based
# cells = format: functional
# [8] = A549 cell cytotoxicity, dose response, cytotoxicity control, plate reader, cherry-pick, antagonist series (AID 743412); format: functional, cell-based
# [9] = blockers of bursicon-stimulated LGR2 cAMP reporter – cell-based, HEK293, CRE-luciferase reporter, cherry pick, set 2, dose response (AID 743343); format: functional;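 note: transfected cells were stimulated with diluted bursicon conditioned medium after compound addition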
# [10] = blockade of melanocortin 4 receptor signaling – cell-based, plate reader, cherry pick, counter-screen for LGR2 antagonist project, dose response (AID 743444); format: functional;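 note: transfected HEK 293 cells stimulated with alpha-MSH peptide; potency of inhibitors of the alpha-MSH evoked signal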
# [11] = viability loss in HEK293 cells – cell-based, plate reader, cherry-picked samples, cytotoxicity control, dose response (AID 743446); format: functional
# [12] = toxicity toward HepG2 liver cells – cell-based, plate reader, cherry-pick, antagonist series, cytotoxicity control, dose response (AID 743416); format: functional
# [13] = target: T2, DNA repair and recombination protein RAD54-like (Homo sapiens, UniProt Q92698); test: RAD54 Holliday junction migration blockers – biochemical, fluorescence, cherry-picked samples, dose series, confirmation (AID 651657); format: functional
# T2 sequence (Q92698 whole entry): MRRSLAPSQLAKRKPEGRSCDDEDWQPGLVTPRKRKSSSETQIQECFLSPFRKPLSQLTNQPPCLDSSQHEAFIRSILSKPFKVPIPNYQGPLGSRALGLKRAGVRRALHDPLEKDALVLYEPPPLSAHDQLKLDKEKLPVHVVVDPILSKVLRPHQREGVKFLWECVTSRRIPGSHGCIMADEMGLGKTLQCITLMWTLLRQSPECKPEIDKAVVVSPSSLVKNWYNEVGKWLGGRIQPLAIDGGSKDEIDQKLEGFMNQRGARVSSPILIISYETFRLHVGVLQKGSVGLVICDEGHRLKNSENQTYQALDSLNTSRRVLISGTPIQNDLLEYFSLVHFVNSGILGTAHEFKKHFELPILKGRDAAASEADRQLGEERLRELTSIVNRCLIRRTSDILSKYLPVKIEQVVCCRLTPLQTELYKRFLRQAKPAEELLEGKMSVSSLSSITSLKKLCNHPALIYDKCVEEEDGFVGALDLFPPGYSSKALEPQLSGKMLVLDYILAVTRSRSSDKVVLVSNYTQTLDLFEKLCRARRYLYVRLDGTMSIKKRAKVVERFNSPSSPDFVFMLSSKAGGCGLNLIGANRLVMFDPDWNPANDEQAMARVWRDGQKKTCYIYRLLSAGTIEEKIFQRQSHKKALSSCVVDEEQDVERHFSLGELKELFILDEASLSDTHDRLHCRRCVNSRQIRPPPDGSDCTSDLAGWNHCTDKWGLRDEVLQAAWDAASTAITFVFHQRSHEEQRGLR
# [14] = target: T3, Histone-lysine N-methyltransferase NSD2 (Homo sapiens, UniProt O96028); format: biochemical
# T3 sequence (O96028 whole entry): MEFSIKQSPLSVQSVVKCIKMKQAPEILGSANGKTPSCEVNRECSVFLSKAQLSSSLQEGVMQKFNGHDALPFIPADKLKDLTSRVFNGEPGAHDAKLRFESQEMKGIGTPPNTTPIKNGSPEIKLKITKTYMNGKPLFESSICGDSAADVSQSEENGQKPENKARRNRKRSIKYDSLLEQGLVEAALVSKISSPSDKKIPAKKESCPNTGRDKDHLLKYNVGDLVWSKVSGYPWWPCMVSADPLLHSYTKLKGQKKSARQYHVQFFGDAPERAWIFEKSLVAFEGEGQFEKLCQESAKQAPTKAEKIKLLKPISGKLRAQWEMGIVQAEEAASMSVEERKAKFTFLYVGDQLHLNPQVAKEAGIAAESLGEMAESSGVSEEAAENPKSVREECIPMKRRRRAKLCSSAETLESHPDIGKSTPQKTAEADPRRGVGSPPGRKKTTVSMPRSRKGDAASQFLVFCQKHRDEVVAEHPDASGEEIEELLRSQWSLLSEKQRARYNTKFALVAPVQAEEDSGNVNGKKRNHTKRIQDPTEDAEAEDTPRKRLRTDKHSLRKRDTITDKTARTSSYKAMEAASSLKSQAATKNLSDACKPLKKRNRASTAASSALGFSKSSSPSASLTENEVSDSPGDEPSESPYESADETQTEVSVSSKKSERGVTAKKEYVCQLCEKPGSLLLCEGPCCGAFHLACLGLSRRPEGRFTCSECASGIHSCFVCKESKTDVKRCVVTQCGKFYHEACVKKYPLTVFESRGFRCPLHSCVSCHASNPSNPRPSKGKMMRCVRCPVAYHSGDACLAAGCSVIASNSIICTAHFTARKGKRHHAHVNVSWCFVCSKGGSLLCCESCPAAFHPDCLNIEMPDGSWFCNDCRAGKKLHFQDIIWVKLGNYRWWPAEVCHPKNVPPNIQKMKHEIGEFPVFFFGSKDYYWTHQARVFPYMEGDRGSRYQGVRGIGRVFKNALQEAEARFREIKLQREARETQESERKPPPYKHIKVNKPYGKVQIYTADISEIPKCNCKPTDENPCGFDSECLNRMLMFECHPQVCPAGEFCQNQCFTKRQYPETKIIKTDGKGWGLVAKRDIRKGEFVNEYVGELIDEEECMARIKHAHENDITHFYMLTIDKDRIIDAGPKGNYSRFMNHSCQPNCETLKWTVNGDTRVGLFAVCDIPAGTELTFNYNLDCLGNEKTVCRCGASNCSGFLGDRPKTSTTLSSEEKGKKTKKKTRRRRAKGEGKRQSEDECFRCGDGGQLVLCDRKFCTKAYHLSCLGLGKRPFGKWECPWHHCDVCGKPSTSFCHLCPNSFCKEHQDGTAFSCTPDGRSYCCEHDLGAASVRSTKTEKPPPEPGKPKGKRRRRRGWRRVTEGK
# Phospholipase D2, sequence (O14939 whole entry, the tested form may be a part): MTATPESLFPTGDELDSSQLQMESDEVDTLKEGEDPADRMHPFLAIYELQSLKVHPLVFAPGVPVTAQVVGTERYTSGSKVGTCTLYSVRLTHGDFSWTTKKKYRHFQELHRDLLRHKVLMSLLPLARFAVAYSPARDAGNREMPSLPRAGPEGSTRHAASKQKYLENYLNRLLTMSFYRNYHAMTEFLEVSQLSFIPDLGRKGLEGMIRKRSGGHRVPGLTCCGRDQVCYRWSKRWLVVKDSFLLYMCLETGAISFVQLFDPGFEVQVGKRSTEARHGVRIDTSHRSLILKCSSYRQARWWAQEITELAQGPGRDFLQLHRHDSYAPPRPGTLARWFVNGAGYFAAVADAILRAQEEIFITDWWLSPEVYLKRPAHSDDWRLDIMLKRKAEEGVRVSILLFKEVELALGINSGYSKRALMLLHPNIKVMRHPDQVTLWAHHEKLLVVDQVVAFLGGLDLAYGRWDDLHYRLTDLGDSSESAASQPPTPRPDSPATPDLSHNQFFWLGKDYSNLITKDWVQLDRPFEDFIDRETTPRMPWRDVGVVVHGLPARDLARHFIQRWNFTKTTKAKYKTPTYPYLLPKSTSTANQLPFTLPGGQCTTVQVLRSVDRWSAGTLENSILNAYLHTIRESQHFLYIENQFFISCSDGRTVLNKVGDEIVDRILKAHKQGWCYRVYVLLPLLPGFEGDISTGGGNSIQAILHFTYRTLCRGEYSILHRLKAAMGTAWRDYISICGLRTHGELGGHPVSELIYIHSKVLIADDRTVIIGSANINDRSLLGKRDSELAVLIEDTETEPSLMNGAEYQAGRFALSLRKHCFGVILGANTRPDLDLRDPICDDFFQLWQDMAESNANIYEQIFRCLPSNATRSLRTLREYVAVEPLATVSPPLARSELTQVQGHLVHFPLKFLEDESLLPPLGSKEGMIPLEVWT
# Kallikrein-7, sequence (P49862 whole entry): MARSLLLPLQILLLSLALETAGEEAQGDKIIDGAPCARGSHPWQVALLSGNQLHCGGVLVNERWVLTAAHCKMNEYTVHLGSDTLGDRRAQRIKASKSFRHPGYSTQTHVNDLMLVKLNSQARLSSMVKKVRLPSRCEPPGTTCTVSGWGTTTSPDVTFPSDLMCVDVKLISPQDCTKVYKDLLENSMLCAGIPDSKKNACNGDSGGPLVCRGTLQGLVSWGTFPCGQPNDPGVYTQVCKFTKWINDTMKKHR
# Paired box protein Pax-8, sequence (Q06710 whole entry): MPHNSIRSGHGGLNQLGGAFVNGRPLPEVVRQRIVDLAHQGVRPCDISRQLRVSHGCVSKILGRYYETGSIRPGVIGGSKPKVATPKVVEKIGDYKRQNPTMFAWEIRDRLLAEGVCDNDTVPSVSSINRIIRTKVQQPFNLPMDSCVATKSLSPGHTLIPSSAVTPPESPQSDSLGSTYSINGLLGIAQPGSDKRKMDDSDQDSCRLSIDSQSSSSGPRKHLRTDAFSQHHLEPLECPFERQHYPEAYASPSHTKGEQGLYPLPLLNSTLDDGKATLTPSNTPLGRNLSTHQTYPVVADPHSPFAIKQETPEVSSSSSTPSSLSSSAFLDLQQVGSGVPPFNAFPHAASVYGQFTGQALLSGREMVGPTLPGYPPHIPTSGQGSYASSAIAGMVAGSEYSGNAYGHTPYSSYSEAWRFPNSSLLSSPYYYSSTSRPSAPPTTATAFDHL
smiles,measurement,setting,value
O=C(O)CCc1nn2c3ccccc3nc2n(CCN2CCCCC2)c1=O,EC50,Kallikrein-7,34.8 µM (inactive)
CC(C)[C@@H](CN1CCC2(CC1)C(=O)NCN2c1ccccc1)NC(=O)c1cc2ccccc2[nH]1,IC50,Phospholipase D1,0.007 µM (active)
same,IC50,Phospholipase D2,0.029 µM (active)
COCCn1c(=S)[nH]c2cc(C(=O)N3CCN(Cc4ccc5c(c4)OCO5)CC3)ccc2c1=O,AC50,[1],29.3 µM (active)
same,AC50,[2],60.2 µM (active)
same,AC50,[3],44.6 µM (active)
O=C(NCCN1CCC(n2c(=O)[nH]c3cc(I)ccc32)CC1)C1CC1c1ccccc1 (stereo unspecified),IC50,Phospholipase D1,0.009 µM (active)
same,IC50,Phospholipase D2,0.345 µM (active)
CC1CC(C)CN(C(=O)c2cc3c(=O)n4ccccc4nc3s2)C1 (stereo unspecified),EC50,Kallikrein-7,> 69.5 µM (inactive)
CC(C)(C)[S+]([O-])N1Cc2cc(C(=O)NCc3ccc4c(c3)OCO4)nc(-c3cccc(-c4cccc(F)c4)c3)c2[C@@H]1CCO (stereo partly specified),AC50,[4],1.74 µM (active)
COc1cc2c(c(OC)c1OC)[C@@]1(c3ccccc3)CCCC[C@H]1[C@@H]2NC(=O)C(F)(F)F,AC50,[1],6.21 µM (active)
same,AC50,[5],7.65 µM (active)
same,AC50,[2],5.7 µM (active)
COC(=O)c1cc(-c2ccc(OC)cc2)nc2nc(SC)[nH]c(=O)c12,EC50,Kallikrein-7,48 µM (inactive)
CC(C)CC#Cc1ccc2c(c1)O[C@H](CN(C)Cc1ccc(C(=O)O)cc1)[C@@H](C)CN([C@H](C)CO)S2(=O)=O,AC50,Paired box protein Pax-8,19.3 µM (active)
same,AC50,[6],57.2 µM (active)
same,AC50,[7],48 µM (active)
O=C(COc1ccc2c(c1)CCC2)Nc1ccccn1,IC50,cells,39.2 µM (active)
same,AC50,[8],45.3 µM (active)
same,AC50,[9],7.18 µM (active)
same,AC50,[10],6.74 µM (active)
same,AC50,[11],33.3 µM (active)
Cc1cccc(N2CCN(C(=O)C3CCN(c4ncnc5c4nc4n5CCCCC4)CC3)CC2)c1C,AC50,[8],35 µM (active)
same,AC50,[12],34.2 µM (active)
same,AC50,[9],31.3 µM (active)
same,AC50,[10],35.8 µM (active)
same,AC50,[11],27.1 µM (active)
CCN1C(=O)[C@H]2[C@@H](c3ccc(C)cc3)N3C(=O)N(c4ccc(C(F)(F)F)cc4)C(=O)[C@@]3(CC(C)C)[C@H]2C1=O,AC50,[1],2 µM (active)
same,AC50,[5],3.63 µM (active)
same,AC50,[2],2.35 µM (active)
same,AC50,[3],4.99 µM (active)
C[C@@H](CN1CCC(n2c(=O)[nH]c3ccccc32)CC1)NC(=O)c1cccnc1,IC50,Phospholipase D1,0.085 µM (active)
same,IC50,Phospholipase D2,14 µM (active)
CN(C)C(=O)c1cccc(-c2ccc([C@@H]3[C@H](CO)N4CCCCN(C(=O)C5CCC5)C[C@@H]34)cc2)c1,AC50,[4],4.83 µM (active)
CCNCCNc1ccc([N+](=O)[O-])c2cccnc12,AC50,[13],29.7 µM (active)
same,AC50,[14],13.6 µM (active)
C[C@@H]1CN([C@H](C)CO)C(=O)c2cc(NS(=O)(=O)c3ccc(Cl)cc3)ccc2O[C@@H](C)CCCCO[C@@H]1CN(C)Cc1ccccc1,AC50,Paired box protein Pax-8,4.7 µM (active)
same,AC50,[7],43 µM (active)
COc1c(N2CCN(C(=S)Nc3ccccc3F)C(C)C2)c(F)cc2c(=O)c(C(=O)O)cn(C3CC3)c12 (stereo unspecified),EC50,Kallikrein-7,> 69.5 µM (inactive)
C[C@@H](CN1CCC2(CC1)C(=O)NCN2c1ccc(F)c(F)c1)NC(=O)c1cnc2ccccc2c1,IC50,Phospholipase D1,0.016 µM (active)
same,IC50,Phospholipase D2,0.076 µM (active)

# Source: ChEMBL document CHEMBL1201862, “PubChem BioAssay data set” (2004)
